Results published in article PMC7582725, “Suppression of hTAS2R16 Signaling by Umami Substances” (International Journal of Molecular Sciences, 2020).
Positions count from the first letter of the chain named.

Tests used:
[1] = molecular target: T1, hTAS2R16 (Homo sapiens, UniProt Q9NYV7); assay: Ca2+ response of hTAS2R16-expressing HEK293T cells to bitter ligands in absence and presence of umami substances (Figure 1; fura-2 F340/F380 imaging / cell-based assay); settings: MSG 80 mM, IMP 20 mM, L-theanine 80 mM, Glu-Glu 6 mM, Gly-Gly 6 mM
T1 construct: expressed in transfected cells; host or cells: HEK293T
T1 sequence (Q9NYV7 1-291): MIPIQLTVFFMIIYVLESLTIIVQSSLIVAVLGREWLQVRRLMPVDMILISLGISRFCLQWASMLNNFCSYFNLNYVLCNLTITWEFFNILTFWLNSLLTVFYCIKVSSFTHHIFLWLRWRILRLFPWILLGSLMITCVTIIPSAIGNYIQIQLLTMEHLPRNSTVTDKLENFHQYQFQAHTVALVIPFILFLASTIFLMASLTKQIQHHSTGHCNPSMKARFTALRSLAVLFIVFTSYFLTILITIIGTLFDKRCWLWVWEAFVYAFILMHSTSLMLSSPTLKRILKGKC
Experimental: We first verified if non-peptide umami substances affect the downstream signaling mechanism, such as changes in intracellular Ca^2+ of the human bitter taste receptor. […] The increase in fluorescence intensity ratio (F340/F380) with 10 mM salicin was expressed as 100. […] In addition to salicin, hTAS2R16 also recognizes bitter sugars such as phenyl β-D-glucopyranoside and arbutin, a glycosylated hydroquinone extracted from the bearberry plant in the genus Arctostaphylos.
(A) Chemical structures of tested compounds. Summarized data (B) and representative traces (C) showing responses of HEK293T cells co-expressing hTAS2R16 and Gα16gust44 to 10 mM salicin in the absence and presence of umami substances in a cell-based assay. (D,E) Representative ratiometric images of fura-2-loaded hTAS2R16-expressing cells in response to the other ligands, 5 mM arbutin (D) or phenyl β-D-glucopyranoside (E), in the presence of umami substances. The data were normalized as percentages to the maximal signal obtained with the ligands. The color scale indicates the F340/F380 ratio. Scale bar: 11.04 μm. Data are presented as means ± standard error of the mean (SEM) of at least three separate experiments. * p < 0.05, ** p < 0.01, and *** p < 0.001 vs. the 0 mM sample group by Student’s t-test.
The umami substances-induced changes in the cytosolic Ca^2+ concentration were measured using a FlexStation III microplate reader (Molecular Devices, Sunnyvale, CA, USA). HEK293T cells transfected with hTAS2R16 were seeded onto 96-well black-wall CellBind surface plates (Corning, NY, USA) for 18–24 h before use. […] The cells were incubated in the dark for 30 min at 37 °C, and then for 15 min at 27 °C in assay buffer consisting of Calcium-4 (FLIPR Calcium 4 Assay Kit, Molecular Devices) and probenecid or the umami compounds. […] The relative changes in cell Ca^2+ were plotted as ΔF/F0 on the y-axis, where ΔF is the change in Calcium-4 fluorescence intensity at each time point and F0 is the fluorescence intensity before treatment. The relative response induced by 10 mM salicin was assigned a value of 100.
Cells were seeded onto 96-well black-wall imaging plates (BD Falcon Labware) for 18–26 h prior to their use in an experiment. […] The cells were rinsed with the buffer, incubated in probenecid or sample for 30 min, and then treated with solution containing the ligand. The Fura-2AM-induced fluorescence intensity (excitation at 340 and 380 nm) was measured at emission wavelength of 510 nm using a computer-controlled filter changer (Lambda DG4; Sutter, San Rafael, CA, USA), an Andor Luca CCD camera (Andor Technology, Belfast, UK), and an inverted fluorescence microscope (IX-71; Olympus, Tokyo, Japan). Images were obtained at 3-s intervals and analyzed using MetaFluor software (Molecular Devices, Sunnyvale, CA, USA).

[2] = molecular target: T1, hTAS2R16; assay: Cellular Ca2+ response, cell-based assay (Calcium-4, FlexStation III) in HEK293T cells co-expressing wild-type hTAS2R16 and G16αgust44; settings: for Maximal Response of salicin: Table 1
Experimental: (§1) HEK293T cells were purchased from American Type Culture Collection (ATCC; Manassas, VA, USA) and cultured as described previously. The plasmids hTAS2R16 and G16αgust44 were constructed as described previously. G16αgust44 and hTAS2R16 were cloned into a cytomegalovirus promoter-based vector and expressed constitutively. Point mutants of N96T and P44T on hTAS2R16 clone and DNA sequencings were performed by Macrogen (Geumcheon-gu, Seoul, Korea). The hTAS2R16 or point mutant expression plasmid was co-transfected with G16αgust44 expression plasmid (4:1) into HEK293T cells using Lipofectamine 2000 (Invitrogen, Carlsbad, CA, USA).
(§2) The umami substances-induced changes in the cytosolic Ca^2+ concentration were measured using a FlexStation III microplate reader (Molecular Devices, Sunnyvale, CA, USA). HEK293T cells transfected with hTAS2R16 were seeded onto 96-well black-wall CellBind surface plates (Corning, NY, USA) for 18–24 h before use. […] The cells were incubated in the dark for 30 min at 37 °C, and then for 15 min at 27 °C in assay buffer consisting of Calcium-4 (FLIPR Calcium 4 Assay Kit, Molecular Devices) and probenecid or the umami compounds. Following treatment, the fluorescence intensity (excitation, 486 nm; emission, 525 nm) of the cell was measured. The relative changes in cell Ca^2+ were plotted as ΔF/F0 on the y-axis, where ΔF is the change in Calcium-4 fluorescence intensity at each time point and F0 is the fluorescence intensity before treatment. The relative response induced by 10 mM salicin was assigned a value of 100.

[3] = molecular target: T1, hTAS2R16; settings: in the presence of 3 mM salicin; read-out: reported IC50; cited from earlier work
[4] = molecular target: T2, hTAS2R16 P44T (Homo sapiens, UniProt Q9NYV7, P44T); assay: Cellular Ca2+ response, cell-based assay in HEK293T cells expressing probenecid-insensitive mutant hTAS2R16 P44T
T2 construct: expressed in transfected cells; host or cells: HEK293T
T2 sequence (Q9NYV7 1-291 P44T): T1 sequence (Q9NYV7 1-291) with P44T
Experimental: as §1, §2

[5] = molecular target: T3, hTAS2R16 N96T (Homo sapiens, UniProt Q9NYV7, N96T); assay: Cellular Ca2+ response, cell-based assay in HEK293T cells expressing probenecid-insensitive mutant hTAS2R16 N96T; settings: Table 3; pretreatment with sample 0.3 mM
T3 construct: expressed in transfected cells; host or cells: HEK293T
T3 sequence (Q9NYV7 1-291 N96T): T1 sequence (Q9NYV7 1-291) with N96T
Experimental: as §1, §2

[6] = molecular target: hTAS2R16 N96T (human) (UniProt Q9NYV7)
[7] = molecular target: hTAS2R16 P44T (human) (UniProt Q9NYV7)
[8] = molecular target: hTAS2R16 (human bitter taste receptor, type 2 taste receptor 16), wild type (human) (UniProt Q9NYV7)
[9] = molecular target: hTAS2R16 (human bitter taste receptor, type 2 taste receptor 16), wild type (human) (UniProt Q9NYV7); remark: listed apart in the source
[10] = Table 3, pretreatment with sample 0.3 mM

inhibition of Ca2+ response to arbutin ([1]; 5 mM arbutin)	inhibition of Ca2+ response to phenyl β-D-glucopyranoside ([1]; phenyl β-D-glucopyranoside)	Maximal Response of salicin ([2]; pretreatment with sample 0.1 mM)	Maximal Response of salicin ([2]; pretreatment with sample 0.3 mM)	Maximal Response of salicin ([2]; pretreatment with sample 1 mM)	Maximal Response of salicin, WT [2, 10]	mechanism of antagonism at hTAS2R16 ([2]; from salicin concentration–response curves at graded antagonist concentrations)	attenuation of salicin response by pretreatment, WT receptor ([2]; salicin 0.003–30 mM, probenecid 0.3 mM, L-theanine 80 mM)	Maximal Response of salicin, P44T [4, 10]	attenuation of salicin response by pretreatment, P44T mutant ([4]; salicin 0.003–30 mM, probenecid 0.3 mM, MSG 80 mM, L-theanine 80 mM)	Maximal Response of salicin, N96T [5]	maximal Ca2+ response (ΔF/F0) to salicin in cells expressing hTAS2R16 N96T after pretreatment with 6 mM Glu-Glu (0.61 without Glu-Glu); the text says the inhibition by Glu-Glu is lost in this mutant [6]	maximal Ca2+ response (ΔF/F0) to salicin in cells expressing hTAS2R16 P44T after pretreatment with 6 mM Glu-Glu (0.62 without Glu-Glu) [7]	maximal Ca2+ response (ΔF/F0) to salicin in cells expressing wild-type hTAS2R16 after pretreatment with 6 mM Glu-Glu (0.54 without Glu-Glu) [8]	maximal Ca2+ response (ΔF/F0) to salicin (0-30 mM) in cells expressing hTAS2R16 with Glu-Glu at 0, 1, 3, 6 and 10 mM (0.54 at 0 mM); value at 10 mM Glu-Glu [9]	Compound	IC50 [3] [µM]
inhibited	inhibited	0.47 ΔF/F0	0.23 ΔF/F0	0.07 ΔF/F0	0.23 ΔF/F0	full insurmountable antagonism	significant attenuation	0.58 ΔF/F0	not in cells expressing the two mutants	0.68 ΔF/F0					CCCN(CCC)S(=O)(=O)c1ccc(C(=O)O)cc1 [Probenecid, ρ-(dipropylsulfamoyl)benzoic acid]	290
											0.65 ΔF/F0	0.42 ΔF/F0	0.4 ΔF/F0	0.33 ΔF/F0	Glu-Glu (peptide)	
